According to US8129340B2, “Inhibitors of protein phosphatase 1, GADD34 and protein phosphatase 1/GADD34 complex, preparation and uses thereof” (Institut Gustave Roussy, priority 2006, dated 2012):

Assays:
CT26 tumour cells [1] = assay: Anti-tumour vaccination: dying treated CT26 cells injected in one flank, later challenge with live tumour cells; assay type: in vivo, BALB/c mice
CRT [2] = assay: Biotinylation of cell surface proteins, 2D gel electrophoresis and mass spectrometry; assay type: cell-based, murine; details: CT26 cells, short-term (4 h) treatment, versus untreated
ERP57 = assay: Biotinylation of cell surface proteins, 2D gel electrophoresis and mass spectrometry (ERP57 spot); assay type: cell-based, murine; details: CT26 cells, short-term (4 h) treatment
CT26 cells = assay: Phagocytosis of CT26 tumour cells by dendritic cells (FACS, double positive cells); assay type: cell-based, BALB/c mice
Method: FIG. 3A, FIG. 3B: Correlation between tumour cell phagocytosis and CRT exposure. Tumour cells labelled with Cell Tracker Green were cultured with CD11c-expressing DC and the percentage of DC taking up tumour cells was determined (A) and correlated with the CRT surface exposure (B), measured as in FIG. 2E.
Mitoxantrone-treated or control cells were incubated with a blocking chicken anti-CRT antibody, followed by detection of phagocytosis by CD.
Cells were transfected with the indicated siRNAs and optionally treated with rCRT, followed by immunoblot (FIG. 3D) detection of surface CRT (FIG. 3E) and phagocytosis by DC (FIG. 3F). Results are triplicates (X±SD) and representative of three independent experiments. * denotes statistically significant differences using the Student t′ test at p<0.001.
BM cells were flushed from the tibias and femurs of BALB/c mice with culture medium composed of RPMI 1640 medium (Invitrogen Life Technologies) supplemented with 10% heat-inactivated FBS (Invitrogen), sodium pyruvate, 50 μM 2-ME (Sigma), 10 mM HEPES (pH 7.4), and penicillin/streptomycin (Invitrogen). After one centrifugation, BM cells were resuspended in Tris-ammonium chloride for 2 min to lyse RBC. After one more centrifugation, BM cells (1×10^6 cells/ml) were cultured in medium supplemented with 100 ng/ml recombinant mouse FLT3 ligand (R&D systems) in 6-well plates (Costar Corning). After 7 days, the non-adherent and loosely adherent cells were harvested with Versene, washed and transferred in 12-well plates (1.5×10^6 cells/plate) for cocultures with tumour cells.
In 12-well plates, […] adherent CT26 cells were labelled with Celltracker Green (Calbiochem) and then incubated with drugs. In some experiments viable CT26 were coated with 2 μg/10^6 cells of chicken anti-CRT antibody (ABR affinity bioreagents) or an isotype control for 30 min prior to washing and feeding to dendritic cells Cs. Alternatively CT26 cells were coated with 2 μg/10^6 cells of rCRT on ice for 30 min and washed twice prior to addition to dendritic cells. Cells were then harvested, washed three times with medium supplemented with FBS and cocultured with immature DC for 2 hours at a ratio of 1:1 and 1:5. At the end of the incubation, cells were harvested with versene, pooled with non-adherent cells present in the supernatant, washed and stained with CD11c-FITC antibody. Phagocytosis was assessed by FACS analysis of double positive cells. Phagocytic indexes refer to the ratio between values obtained at 4° C. and values obtained at 37° C. of co-incubation between DC and tumour cells.

cell surface CRT = assay: Fluorescence detection of cell surface CRT on CT26 cells (cytofluorometry); assay type: cell-based, murine; details: agent alone
Method: FIG. 1SA, FIG. 1SB: Kinetics of CRT exposure. CT26 cells were treated with mitoxantrone for the indicated period, followed by immunofluorescence staining with a CRT-specific antibody and cytofluorometric analysis.
FIG. 2E: Correlation between CRT exposure and immunogenicity. The surface exposure of CRT was determined by immunofluorescence cytometry while gating on viable (propidium iodine-negative) cells (inserts) and was correlated with the immunogenicity of cell death (as determined in FIG. 1). CO, control; Tg, thapsigargin; Tu, tunicamycin.
FIG. 5E: Kinetics of CRT exposure determined by FACS analysis after incubation of cells with the indicated agents.
FIG. 5F-FIG. 5G: PP1/GADD34 inhibitors render cell immunogenic via CRT. Tumour cells were first transfected with a control siRNA or a CRT-specific siRNA and then treated in vitro with etoposide, alone or in combination with PP1/GADD34 inhibitors. […] The results represent the % of tumour free mice (comprising a total of 12 to 18 mice per group).
CT26 cells (on a glass slide or in 12-well plates) were first washed with FACS buffer (1×PBS, 5% fetus bovine serum, and 0.1% sodium azide) and then incubated with rabbit anti-mouse CRT antibody (1:100, Stressgen) in FACS buffer at 4° C. for 30 min. Cells reacted with anti-rabbit IgG (H+L) Alexa fluor 488-conjugates (1:500) in FACS buffer at 4° C. for 30 min. After washing three times with FACS buffer, surface CRT was detected by cytofluorometric analysis on a FACS Vantage. In some experiments, cells were fixed with 4% paraformaldehyde, counterstained with Hoechst (2 μM; Sigma), followed by fluorescence microscopic assessment with a Leica IRE2 microscope equipped with a DC300F camera.

CT26 tumours [3] = assay: Intratumoural treatment of established CT26 tumours in immunodeficient mice; assay type: in vivo, athymic nu/nu Balb/c mice; details: for therapeutic effect of single agent on established tumours, nu/nu mice: single intratumoural injection
CT26 tumours [4] = assay: Intratumoural treatment of established CT26 tumours in immunocompetent mice; assay type: in vivo, BALB/c mice (wild type); details: for therapeutic effect combined with a cell death inducer (etoposide or mitomycin C), immunocompetent mice: intratumoural injection with etoposide or mitomycin C; for therapeutic effect of single agent on established tumours, immunocompetent mice: single intratumoural injection, 14-day-old CT26 tumours
CRT [5] = assay: CRT exposure on tumour cell lines of murine origin (MCA205, B16F10, J558); assay type: cell-based
CRT [6] = assay: CRT exposure on tumour cell lines of human origin (HeLa, A549, HCT116); assay type: cell-based
CT26 colon cancer = assay: Intratumoural peptides with systemic mitomycin C against established CT26 colon cancer (tumor size, survival); assay type: in vivo, BALB/c mice; details: 10 micrograms peptide in situ plus systemic mitomycin C
Method: CT26 cells were injected se in BALB/c mice. At a size of 20 mm^2, the palpable tumors were directly inoculated in situ with 10 micrograms of either of the three following peptides (see below) alone or together with a systemic treatment with mitomycin C (as described in Obeid et al. Nat Med 2007) or PBS. • 1. Cell-penetrable PP1 inhibitory peptide VKKKKIKREIKI-LKARKVRFSEKV (SEQ ID NO: 4) • 2. Cell-penetrable control peptide VKKKKIKREIKI-LKARAVRFSEKV (SEQ ID NO: 18) • 3. Cell penetration sequence VKKKKIKREIKI (SEQ ID NO: 3) alone admixed together with PP1-inhibitory peptide LKARKVRFSEKV (SEQ ID NO: 2) alone.
5 animals/group were included in this experiment.

calreticulin [7] = assay: Calreticulin exposure by immunofluorescence staining and flow cytometry, HCT116 cells; assay type: cell-based, human; details: 2 hours
Method: (§1) HCT116 cells (FIG. 7A) or CT26 cells (FIG. 7B) were cultured in complete mediums supplemented with 10% fetal calf serum alone or in the presence of the control peptide (VKKKKIKREIKI-lkaravafsekv) (SEQ ID NO: 17) or the PP1/GADD34 inhibitory peptide (VKKKKIKREIKI-lkarkvrfsekv, SEQ ID NO: 4. denominated PP1 peptide) for 2 hours. Cells were washed twice with PBS and fixed in PFA (4% w/v) for 5 min. Cells were stained with an antibody against calreticulin (pAb from Abeam, ab2907) at 1:200 dilution or isotype control, in staining buffer (PBS, 1% FCS) for 30 min on ice, followed by washing. An anti-rabbit Alexa fluor 488 immunoglobulin conjugate (Molecular Probes-Invitrogen) diluted at 1:500 was added for an additional 30 min on ice before washing and analysed by flow cytometry (FACScan, Becton Dickinson). Propidium Iodide (50 μg/ml, Becton Dickinson) was added to the samples to label and exclude permeabilized (dead) cells.

calreticulin [8] = assay: Calreticulin exposure by immunofluorescence staining and flow cytometry, CT26 cells (peptide test); assay type: cell-based, murine; details: 2 hours
Method: as §1

CT26 colon cancer cells = assay: In vivo anti-cancer vaccination: treated tumour cells in one flank and live tumour cells in opposite flank simultaneously; design: species or system BALB/c mice
Method: FIG. 4A: In vivo anti-cancer vaccination depends on CRT. CT26 colon cancer cells were transfected with the indicated siRNAs, then treated with rCRT and/or mitoxantrone (as in FIG. 3D) and the anti-tumour response was measured by simultaneously challenging BALB/c mice with mitoxantrone treated tumour cells in one flank and untreated live tumour cells in the opposite flank.
FIG. 4D: CRT-mediated amelioration of the immune response against etoposide-treated tumour cells. CT26 cells were treated for 24 h with etoposide (or PBS) and rCRT was optionally absorbed to the cell surface (inserts), followed by simultaneous injection of the etoposide ±rCRT-treated tumour cells and live tumour cells in opposite flanks and monitoring of tumour growth.
(§2) Tumours were evaluated weekly, using a caliper.

CT26 tumour cells [9] = assay: Local immune response: tumour cells injected into foot pad, IFN-γ secretion by draining popliteal lymph node cells (ELISA); assay type: in vivo, Balb/c mice
Method: FIG. 4B: Priming of T cell responses depending on CRT. CT26 tumour cells were left untransfected or transfected with the indicated siRNAs, then treated with medium alone, mitomycin C or mitoxantrone and injected into the right food pad of Balb/c mice. Five days later, mononuclear cells from the draining popliteal lymph nodes were challenged with freeze-thawed CT26 cells, and IFN-γ secretion was assessed at 72 hrs.
FIG. 4C: Exogenous supply of CRT enhances the immunogenicity of CRT-negative dying cells. CT26 cells lacking CRT expression after depletion of CRT with a siRNA and mitoxantrone treatment or after mitomycin treatment were coated with rCRT (inserts) and then injected in the food pad, followed by assessment of the IFN-γ secretion by cells from the draining lymph nodes as in FIG. 4B.
as §2

DC = DC maturation ex vivo; assay type: cell-based; details: alone, over a large range of concentrations

COc1cccc2c1C(=O)c1c(O)c3c(c(O)c1C2=O)C[C@@](O)(C(=O)CO)C[C@@H]3O[C@H]1C[C@H](N)[C@H](O)[C@H](C)O1 [doxorubicin]
immunogenicity of cell death (protection against tumour growth, anti-tumour vaccination) (CT26 tumour cells [1]; dying CT26 cells treated with agent injected into one flank, live tumour cells in opposite flank 8 days later): elicited immunogenic cell death | induction of surface CRT (factor) (CRT [2]): 6 | surface exposure of ERP57 (ERP57): specifically induced | phagocytosis of drug-treated tumour cells by DC (CT26 cells; within a few hours after treatment): acquired the property to be phagocytosed by DC quickly

O=C(/C=C/c1ccccc1)NC(NC(=S)Nc1cccc2cccnc12)C(Cl)(Cl)Cl (centres unmarked) [salubrinal]
induction of CRT exposure at the cell surface (cell surface CRT): efficiently induced | therapeutic effect of single agent on established tumours, nu/nu mice (CT26 tumours [3]): no major therapeutic effect | induction of immunogenic cell death by the inhibitor alone (CT26 tumour cells [1]; without cell death inducer): not sufficient to induce immunogenic cell death | therapeutic effect combined with a cell death inducer (etoposide or mitomycin C), immunocompetent mice (CT26 tumours [4]): stable disease or complete tumour regression | therapeutic effect of single agent on established tumours, immunocompetent mice (CT26 tumours [4]): no major therapeutic effect | CRT exposure on murine tumour cell lines (CRT [5]): induced CRT exposure | CRT exposure on human tumour cell lines (CRT [6]): induced CRT exposure

VKKKKIKREIKI-LKARKVRFSEKV (VKKKKIKREIKILKARKVRFSEKV; Artificial sequence including a fragment of GADD34 and a translocation motif.) [SEQ ID NO:4, fragment of GADD34 fused to a plasma membrane translocation motif]
therapeutic effect of combination with mitomycin C (CT26 colon cancer): synergistic therapeutic effects | exposure of calreticulin, HCT116 cells (calreticulin [7]): capable of inducing the exposure of calreticulin | exposure of calreticulin, CT26 cells (calreticulin [8]): capable of inducing the exposure of calreticulin

B1: rCRT: recombinant CRT protein, which binds to the surface of the cells (protein, UniProt P27797 18-417, looked up)
Calreticulin: EPAVYFKEQFLDGDGWTSRWIESKHKSDFGKFVLSSGKFYGDEEKDKGLQTSQDARFYALSASFEPFSNKGQTLVVQFTVKHEQNIDCGGGYVKLFPNSLDQTDMHGDSEYNIMFGPDICGPGTKKVHVIFNYKGKNVLINKDIRCKDDEFTHLYTLIVRPDNTYEVKIDNSQVESGSLEDDWDFLPPKKIKDPDASKPEDWDERAKIDDPTDSKPEDWDKPEHIPDPDAKKPEDWDEEMDGEWEPPVIQNPEYKGEWKPRQIDNPDYKGTWIHPEIDNPEYSPDPSIYAYDNFGVLGLDLWQVKSGTIFDNFLITNDEAYAEEFGNETWGVTKAAEKQMKDKQDEEQRLKEEEEDKKRKEEEEAEDKEDDEDKDEDEEDEEDKEEDEEEDVPGQAKDEL
therapeutic effect combined with a cell death inducer (etoposide or mitomycin C), immunodeficient mice (CT26 tumours [3]; intratumoural injection with etoposide or mitomycin C): not in immunodeficient | therapeutic effect of single agent on established tumours, nu/nu mice (CT26 tumours [3]): no major therapeutic effect | immunogenicity of mitoxantrone-treated CT26 cells (efficacy of anti-tumour vaccination) (CT26 colon cancer cells; cells injected into the flank of Balb/c mice): this defect was restored | anti-tumour immune response to etoposide-treated cells coated with rCRT (CT26 colon cancer cells; etoposide-treated cells coated with rCRT): elicited a vigorous anti-tumour immune response in vivo | anti-cancer immune response to rCRT-coated live cells (CT26 colon cancer cells; rCRT absorbed to cell surface without prior treatment with cell death inducers): failed to elicit an anti-cancer immune response | effect of rCRT injected into a distant site (CT26 tumours [4]; contralateral subcutaneous rCRT plus intratumoural etoposide): did not ameliorate the antitumoural effects of intratumorally injected etoposide | therapeutic effect combined with a cell death inducer (etoposide or mitomycin C), immunocompetent mice (CT26 tumours [4]): able to cause tumour regression | therapeutic effect of single agent on established tumours, immunocompetent mice (CT26 tumours [4]): no major therapeutic effect | immunogenicity of mitoxantrone-treated CT26 cells (interferon-γ production by T cells from popliteal lymph node) (CT26 tumour cells [9]; cells injected into the foot pad): this defect was restored | immunogenicity of mitomycin-treated cells coated with rCRT (IFN-γ) (CT26 tumour cells [9]; rCRT absorbed to plasma membrane of mitomycin-treated cells): greatly enhanced the immunogenicity of cells that usually fail to induce an immune response | restoration of phagocytosis by DC in CRT-siRNA cells (CT26 cells; rCRT added to cell surface of CRT-siRNA transfected cells): could reverse the defect induced by the CRT-specific siRNA | DC maturation (DC): could not promote DC maturation ex vivo
